Measured values as given in patent publication US6037365A, “Aminobenzamidinosuccinyl lactone derivatives useful as inhibitors of platelet aggregation” (G.D. Searle & Co., priority 1998, dated 2000).
Counter-ions that a name gives are not always drawn.

test system: platelet aggregation in platelet-rich plasma (PRP); assay: In-Vitro Platelet Aggregation in PRP (ADP-induced); format: cell-based, dogs; details: Canis lupus familiaris, Platelet, dog PRP, ADP 50 μM final concentration, 1 min preincubation at 37° C., aggregation monitored 1 min; unit inferred; read-out: IC50 (dosage at which 50% of platelet aggregation is inhibited)
Method: In-Vitro Platelet Aggregation in PRP
Healthy male or female dogs were fasted for 8 hours prior to drawing blood; then 30 mL whole blood was collected using a butterfly needle and 30 mL plastic syringe with 3 mL of 0.129M buffered sodium citrate (3.8%). The syringe was rotated carefully as blood was drawn to mix the citrate. Platelet-rich plasma (PRP) was prepared by centrifugation at 975×g for 3.17 minutes at room temperature allowing the centrifuge to coast to a stop without braking. The PRP was removed from the blood with a plastic pipette and placed in a plastic-capped 50 mL Corning conical sterile centrifuge tube which was held at room temperature. Platelet-poor plasma (PPP) was prepared by centrifuging the remaining blood at 2000×g for 15 minutes at room temperature allowing the centrifuge to coast to a stop without braking. The PRP was adjusted with PPP to a count of 2-3×10^8 platelets/mL. The PRP preparation (400 μL) and 50 μL of the compound solution to be tested or saline were preincubated for 1 minute at 37° C. in a BioData aggregometer (BioData, Horsham, Pa.). Adenosine-5'-diphosphate (ADP, 50 μL, 50 μM final concentration) was added to the cuvettes and the aggregation was monitored for 1 minute. All compounds are tested in duplicate. Results are calculated as follows: Percent of control=[(maximal OD minus initial OD of compound) divided by (maximal OD minus initial OD of control saline)]×100. The percent inhibition equals 100-(percent of control).
The compounds tested and their median inhibitory concentrations (IC50) are recorded in Table 1. The IC50 (dosage at which 50% of platelet aggregation is inhibited) were calculated by linear regression of the dose response curve.

Row | SMILES | IC50 [nM]
1 | N=C(N)c1ccc(NC(=O)CCC(=O)N[C@H]2CC(=O)OC2c2ccc(F)cc2)cc1 (single isomer, unassigned; diastereoisomer a) [Ex 4 Step 4] | 500
2 | N=C(N)c1ccc(NC(=O)CCC(=O)N[C@@H]2COC(=O)C2)cc1 [Ex 1 Step 4, N-[4-(aminoiminomethyl)phenyl]-N'-(tetrahydro-5-oxo-3S-furanyl)butanediamide, Trifluoroacetate] | 3000
3 | N=C(N)c1ccc(NC(=O)CCC(=O)N[C@H](CO)CC(=O)O)cc1 [Ex 1 Step 5, 3S-[[4-[[4-aminoiminomethyl)phenyl]amino]-1,4-dioxobutyl]amino]-4-hydroxybutanoic acid, trifluoroacetate] | 700
4 | C=CC(O)[C@H](CC(=O)O)NC(=O)CCC(=O)Nc1ccc(C(=N)N)cc1 (stereo partly drawn) [Ex 7 Step 5, 3S-[[4-[[4-(aminoiminomethyl)phenyl]amino]-1,4-dioxobutyl]amino]-4-hydroxy-hex-5-enoic acid, trifluoroacetate] | 290
5 | N=C(N)c1ccc(NC(=O)CCC(=O)NC(CC(=O)O)c2ccccc2O)cc1 (centres unmarked) [Ex 8 Step 1, 3-[[4-[[4-(aminoiminomethyl)phenyl]-amino]-1,4-dioxobutyl]amino-]3(-hydroxyphenyl)propanoic acid] | 260
6 | N=C(N)c1ccc(NC(=O)CCC(=O)NC2CC(=O)Oc3ccccc32)cc1 (centres unmarked) [Ex 8 Step 2, N-[4-(aminoiminomethyl)phenyl]-N'-[3,4-dihydro-2-oxo-2H-1-benzopyran-4-yl]butanediamide, Trifluoroacetate] | 200

same assay, conditions: dog PRP, ADP 50 μM final concentration, 1 min preincubation at 37° C., aggregation monitored 1 min; unit inferred; read-out: IC50 (dosage at which 50% of platelet aggregation is inhibited)

Row | SMILES | IC50 [nM]
7 | N=C(N)c1ccc(NC(=O)CCC(=O)N[C@@H](CC(=O)O)C(O)c2ccccc2)cc1 (single isomer, unassigned) [Ex 2 Step 6, 3S-[[4-[[4-(aminoiminomethyl)phenyl]amino]-1,4dioxobutyl]amino]-4-hydroxy-phenyl-butanoic acid, trifluoroacetate] | 1600
8 | N=C(N)c1ccc(NC(=O)CCC(=O)N[C@@H](CC(=O)O)C(O)c2ccccc2)cc1 (single isomer, unassigned) [Ex 3 Step 2, 3S-[[4-[[4-(aminoiminomethyl)phenyl]amino]-1,4-dioxobutyl]amino]-4-hydroxy-phenylbutanoic acid, trifluoroacetate] | 600
9 | N=C(N)c1ccc(NC(=O)CCC(=O)N[C@@H](CC(=O)O)C(O)c2ccc(F)cc2)cc1 (single isomer, unassigned) [Ex 4 Step 5, 3S-[[4-[[4-(aminoiminomethyl)phenyl]amino]-1,4-dioxobutyl]amino]-4-hydroxy-(4-fluoro-phenyl)butanoic acid, trifluoroacetate] | 150
10 | N=C(N)c1ccc(NC(=O)CCC(=O)N[C@@H](CC(=O)O)C(O)c2ccc(F)cc2)cc1 (single isomer, unassigned) [Ex 5 Step 2, 3S-[[4-[[4-(aminoiminomethyl)-phenyl]amino]-1,4-]dioxobutyl]amino]-4-hydroxy-(4-fluoro-phenyl)butanoic acid, trifluoroacetate] | 800
11 | N=C(N)c1ccc(NC(=O)CCC(=O)N[C@@H](CC(=O)O)C(O)c2ccc3c(c2)OCO3)cc1 (single isomer, unassigned) [Ex 9 Step 6, 3S-[[4-[[4-(aminoiminomethyl)phenyl]amino]-1,4-dioxobutyl]amino]-4-hydroxy-[5-(1,3-benzodioxolyl)]butanoic acid, trifluoroacetate] | 350
12 | N=C(N)c1ccc(NC(=O)CCC(=O)N[C@@H](CC(=O)O)C(O)c2ccc3c(c2)OCO3)cc1 (single isomer, unassigned) [Ex 10 Step 2, 3S-[[4-[[4-(aminoiminomethyl)phenyl]amino]-1,4-dioxobutyl]amino-4-hydroxy-4-[5-(1,3-benzodioxolyl)]butanoic acid, trifluoroacetate] | 1300
13 | N=C(N)c1ccc(NC(=O)CCC(=O)N[C@H]2CC(=O)OC2c2ccc3c(c2)OCO3)cc1 (single isomer, unassigned; diastereoisomer 1) [Ex 9 Step 5, N-[4-(aminoiminomethyl)phenyl]-N'-[tetrahydro-5-oxo-2-[5-(1,3-benzodioxolyl)]-3S-furanyl]butanediamide, Trifluoroacetate; Diastereoisomer 1] | 430
14 | N=C(N)c1ccc(NC(=O)CCC(=O)N[C@H]2CC(=O)OC2c2ccc3c(c2)OCO3)cc1 (single isomer, unassigned; diastereoisomer 2) [Ex 10 Step 1] | 3000
15 | N=C(N)c1ccc(NC(=O)CCC(=O)N[C@H]2CC(=O)OC2c2ccccc2)cc1 (single isomer, unassigned; isomer a) [Ex 2 Step 5, N-[4-(aminoiminomethyl)phenyl]-N'-(tetrahydro-5-oxo-2-phenyl-3S-furanyl)butanediamide, Trifluoroacetate (Isomer A)] | 650
16 | N=C(N)c1ccc(NC(=O)CCC(=O)N[C@H]2CC(=O)OC2c2ccccc2)cc1 (single isomer, unassigned; isomer b) [Ex 3 Step 1, N-[4-(aminoiminomethyl)phenyl]-N'-(tetrahydro-5-oxo-2-phenyl-3S-furanyl)butanediamide, trifluoroacetate (Isomer B)] | 2500
17 | N=C(N)c1ccc(NC(=O)CCC(=O)NC(CC(=O)O)C(O)c2nccs2)cc1 (stereo not drawn) [Ex 6 Step 6, 3S-[[4-[[4-(aminoiminomethyl)phenyl]amino]-1,4-dioxobutyl]amino]-4-hydroxy-2-thiazolylbutanoic acid, trifluoroacetate] | 450
